Test results from ChEMBL document CHEMBL1134601, “Coumarins derivatives as dual inhibitors of acetylcholinesterase and monoamine oxidase” (J Med Chem, 2001).

Key:
[1] = molecular target: Acetylcholinesterase (Electrophorus electricus) (UniProt O42275)
Description: Non-competitive inhibitory activity against acetylcholinesterase (AChE)

[2] = molecular target: Acetylcholinesterase (Electrophorus electricus) (UniProt O42275); remark: listed apart in the source
Description: Competitive inhibitory activity against acetylcholinesterase (AChE)

Acetylcholinesterase (Electrophorus electricus), sequence (O42275 24-633 limits assumed): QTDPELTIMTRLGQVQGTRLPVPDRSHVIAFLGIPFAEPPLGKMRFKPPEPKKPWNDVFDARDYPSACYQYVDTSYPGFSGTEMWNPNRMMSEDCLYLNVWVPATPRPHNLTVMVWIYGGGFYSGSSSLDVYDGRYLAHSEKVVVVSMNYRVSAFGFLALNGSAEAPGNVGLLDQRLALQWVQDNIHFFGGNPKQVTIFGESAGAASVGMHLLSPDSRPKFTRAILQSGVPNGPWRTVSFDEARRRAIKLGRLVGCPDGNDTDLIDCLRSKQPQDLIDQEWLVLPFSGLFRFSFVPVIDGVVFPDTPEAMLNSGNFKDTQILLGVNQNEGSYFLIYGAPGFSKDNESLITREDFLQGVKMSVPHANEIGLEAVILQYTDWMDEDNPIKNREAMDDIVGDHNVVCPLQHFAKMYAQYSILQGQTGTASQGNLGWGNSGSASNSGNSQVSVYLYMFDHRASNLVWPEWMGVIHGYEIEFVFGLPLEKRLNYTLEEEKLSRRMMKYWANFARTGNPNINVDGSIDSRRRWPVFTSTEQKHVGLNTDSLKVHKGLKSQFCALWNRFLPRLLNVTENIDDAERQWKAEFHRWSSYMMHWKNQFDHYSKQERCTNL

| SMILES | pKinc [1] | pKic [2] |
| --- | --- | --- |
| Cc1c(C)c2ccc(OCc3ccc(F)c(F)c3)cc2oc1=O | 5.06 |  |
| COc1ccc2c(C)c(C)c(=O)oc2c1 | 4.56 | 4.8 |
| Cc1c(C)c2ccc(OCc3cccc(N)c3)cc2oc1=O | 4.74 |  |
| Cc1cc(=O)c2cc(OCc3ccccc3)ccc2o1 | 4.53 | 4.78 |
| Cc1c(C)c2ccc(OCc3ccccc3)cc2oc1=O | 5.39 |  |
| Cc1c(C)c2ccc(OCc3cc(F)cc(F)c3)cc2oc1=O | 4.73 |  |
| O=c1ccoc2ccc(OCc3ccccc3)cc12 | 4.29 |  |
| Cc1ccccc1COc1ccc2c(C)c(C)c(=O)oc2c1 | 4.68 |  |
| Cc1c(C)c2ccc(OCCc3ccccc3)cc2oc1=O | 4.8 |  |
| Cc1c(C)c2ccc(OCc3cccc(O)c3)cc2oc1=O | 4.83 |  |
| Cc1c(C)c2ccc(O)cc2oc1=O | 4 | 4.54 |
